Consider four molecules from patent publication US10654834B2 (Venenum Biodesign, LLC, priority 2016, dated 2020).

For data set [1], the target named is T1, human TGR5 receptor (Homo sapiens, UniProt Q8TDU6).
T1 construct: host or cells: CHO-K1 (hTGR5-CHO)
T1 sequence (Q8TDU6 1-330): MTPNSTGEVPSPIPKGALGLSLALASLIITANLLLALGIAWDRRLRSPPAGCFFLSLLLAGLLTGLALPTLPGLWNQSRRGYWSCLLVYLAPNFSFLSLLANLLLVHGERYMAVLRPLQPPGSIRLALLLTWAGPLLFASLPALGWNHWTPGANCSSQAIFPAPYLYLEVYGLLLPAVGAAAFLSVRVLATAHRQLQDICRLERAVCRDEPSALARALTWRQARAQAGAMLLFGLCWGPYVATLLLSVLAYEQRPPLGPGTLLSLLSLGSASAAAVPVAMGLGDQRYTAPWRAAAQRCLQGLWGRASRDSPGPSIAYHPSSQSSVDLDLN
Put plainly: Human TGR5 cAMP production assay (hTGR5-CHO cells, DiscoveRx cAMP XS+ kit). The data set is classed as cell-based. The following applies: luminescent cAMP assay, read-out: Human TGR5 Lum. cAMP Activity (EC50). An outline of the steps: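 EC50 values come from luminescent enzyme-complementation cAMP detection, read after overnight incubation. Beforehand, hTGR5-expressing CHO-K1 cells with IBMX and anti-cAMP antibody were exposed 1 h at room temperature to serially diluted (half-log) compounds.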

The nature of data set [2]: Pharmacokinetic profile in mice after oral gavage. The data set is classed as in vivo, mouse. The following applies: mouse; fasted male Hilltop mice, 10 mg/kg oral gavage, plasma; read-out: Cmax. An outline of the steps:
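Plasma exposure (Cmax, AUC) by non-compartmental analysis of LC-MS/MS data, orbital blood taken at 0, 0.25, 0.5, 1, 2 and 4 h, each value averaging three mice. Dosing: 10 mg/kg oral gavage to overnight-fasted male Hilltop mice (8 weeks), vehicle PEG400/CMC/Tween-80.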

In the case of `N#Cc1ccc(CCNC(=O)[C@@H]2CCCN2c2cc(N3CCC(CCNc4c(NCCS(=O)(=O)O)c(=O)c4=O)CC3)nc(C(F)(F)F)n2)cc1` [Compound 367, (S)-2-((2-((2-(1-(6-(2-((4-cyanophenethyl)carbamoyl)pyrrolidin-1-yl)-2-(trifluoromethyl)pyrimidin-4-yl)piperidin-4-yl)ethyl)amino)-3,4-dioxocyclobut-1-en-1-yl)amino)ethanesulfonic acid], the half-maximal effective concentration (EC50) in data set [1] is under 100 nM. Moreover, in data set [2], the Cmax was 1.5 ng/mL.

In the case of `N#Cc1ccc(CCNC(=O)[C@@H]2CCCN2c2cc(N3CCC(CCNc4c(NCCC(=O)O)c(=O)c4=O)CC3)nc(C(F)(F)F)n2)cc1` [Compound 368, (S)-3-((2-((2-(1-(6-(2-((4-cyanophenethyl)carbamoyl)pyrrolidin-1-yl)-2-(trifluoromethyl)pyrimidin-4-yl)piperidin-4-yl)ethyl)amino)-3,4-dioxocyclobut-1-en-1-yl)amino)propanoic acid], the EC50 in data set [1] was under 100 nM. Further, in data set [2], the Cmax stood at 2.5 ng/mL.

`N#Cc1ccc(CCNC(=O)[C@@H]2CCCN2c2cc(N3CCC(CCNc4c(NCP(=O)(O)O)c(=O)c4=O)CC3)nc(C(F)(F)F)n2)cc1` [Compound 369, (S)-(((2-((2-(1-(6-(2-((4-cyanophenethyl)carbamoyl)pyrrolidin-1-yl)-2-(trifluoromethyl)pyrimidin-4-yl)piperidin-4-yl)ethyl)amino)-3,4-dioxocyclobut-1-en-1-yl)amino)methyl)phosphonic acid]: the half-maximal effective concentration (EC50) in data set [1] is under 100 nM. Besides, the peak concentration (Cmax) in data set [2] is 1.7 ng/mL.

On to `N#Cc1ccc(CCNC(=O)[C@@H]2CCCN2c2cc(N3CCC(CCNC(=O)NCP(=O)(O)O)CC3)nc(C(F)(F)F)n2)cc1` [Compound 372, (S)-((3-(2-(1-(6-(2-((4-cyanophenethyl)carbamoyl)pyrrolidin-1-yl)-2-(trifluoromethyl)pyrimidin-4-yl)piperidin-4-yl)ethyl)ureido)methyl)phosphonic acid], for which, in data set [1], the EC50 was under 100 nM. Also, the maximum concentration (Cmax) in data set [2] was determined as 105 ng/mL.
